Measured values as given in PubChem BioAssay (NCI).
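Tested at 5 concentrations; 48 h exposure; 96-well plates; endpoints linearly interpolated, else capped at highest concentration. TGI marks complete inhibition of growth.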

Experiments:
Test in all cases: NCI-60 cell line screen, 48 h
IGROV1 ovarian = test system: IGROV1 ovarian
SK-OV-3 ovarian = test system: SK-OV-3 ovarian
HS 578T breast = test system: HS 578T breast
CAKI-1 renal = test system: CAKI-1 renal
UO-31 renal = test system: UO-31 renal
U251 CNS = test system: U251 CNS
A549 NSCLC = test system: A549 NSCLC
NCI-H460 lung = test system: NCI-H460 lung
UACC-62 melanoma = test system: UACC-62 melanoma
M14 melanoma = test system: M14 melanoma
BT-549 breast = test system: BT-549 breast
SNB-75 CNS = test system: SNB-75 CNS
HOP-62 NSCLC = test system: HOP-62 NSCLC
SF-539 CNS = test system: SF-539 CNS
SK-MEL-28 melanoma = test system: SK-MEL-28 melanoma
NCI/ADR-RES ovarian = test system: NCI/ADR-RES ovarian
KM12 colon = test system: KM12 colon
OVCAR-4 ovarian = test system: OVCAR-4 ovarian
HT29 colon = test system: HT29 colon
EKVX NSCLC = test system: EKVX NSCLC
SK-MEL-5 melanoma = test system: SK-MEL-5 melanoma
HCT-116 colon = test system: HCT-116 colon
DU-145 prostate = test system: DU-145 prostate
OVCAR-8 ovarian = test system: OVCAR-8 ovarian
MDA-N = test system: MDA-N
PC-3 prostate = test system: PC-3 prostate
MDA-MB-231 breast = test system: MDA-MB-231 breast
T-47D breast = test system: T-47D breast
A498 renal = test system: A498 renal
MDA-MB-435 = test system: MDA-MB-435
CCRF-CEM leukemia = test system: CCRF-CEM leukemia
MCF7 breast = test system: MCF7 breast
SK-MEL-2 melanoma = test system: SK-MEL-2 melanoma
NCI-H522 lung = test system: NCI-H522 lung
SNB-19 CNS = test system: SNB-19 CNS
MALME-3M melanoma = test system: MALME-3M melanoma
UACC-257 melanoma = test system: UACC-257 melanoma
LOX IMVI melanoma = test system: LOX IMVI melanoma
COLO 205 colon = test system: COLO 205 colon
MOLT-4 leukemia = test system: MOLT-4 leukemia
TK-10 renal = test system: TK-10 renal
HL-60(TB) leukemia = test system: HL-60(TB) leukemia
SF-295 CNS = test system: SF-295 CNS
SW-620 colon = test system: SW-620 colon
HOP-92 NSCLC = test system: HOP-92 NSCLC
HCT-15 colon = test system: HCT-15 colon
OVCAR-5 ovarian = test system: OVCAR-5 ovarian
K-562 leukemia = test system: K-562 leukemia
786-0 renal = test system: 786-0 renal
OVCAR-3 ovarian = test system: OVCAR-3 ovarian
NCI-H226 lung = test system: NCI-H226 lung
ACHN renal = test system: ACHN renal
RPMI-8226 leukemia = test system: RPMI-8226 leukemia
SN12C renal = test system: SN12C renal
SR leukemia = test system: SR leukemia
RXF 393 renal = test system: RXF 393 renal
NCI-H23 lung = test system: NCI-H23 lung
SF-268 CNS = test system: SF-268 CNS
HCC-2998 colon = test system: HCC-2998 colon

O=C(O)CN1CCN2CCCCCCCCN(CC1)CCN(CC(=O)O)CC2
TGI (IGROV1 ovarian): > 100 µM | TGI (SK-OV-3 ovarian): > 100 µM | TGI (HS 578T breast): > 100 µM | TGI (CAKI-1 renal): > 100 µM | TGI (UO-31 renal): > 100 µM | TGI (U251 CNS): > 100 µM | TGI (A549 NSCLC): > 100 µM | TGI (NCI-H460 lung): > 100 µM | TGI (UACC-62 melanoma): > 100 µM | TGI (M14 melanoma): > 100 µM | TGI (BT-549 breast): > 100 µM | TGI (SNB-75 CNS): > 100 µM | TGI (HOP-62 NSCLC): > 100 µM | TGI (SF-539 CNS): > 100 µM | TGI (SK-MEL-28 melanoma): > 100 µM | TGI (NCI/ADR-RES ovarian): > 100 µM | TGI (KM12 colon): > 100 µM | TGI (OVCAR-4 ovarian): > 100 µM | TGI (HT29 colon): > 100 µM | TGI (EKVX NSCLC): > 100 µM | TGI (SK-MEL-5 melanoma): > 100 µM | TGI (HCT-116 colon): > 100 µM | TGI (DU-145 prostate): > 100 µM | TGI (OVCAR-8 ovarian): > 100 µM | TGI (MDA-N): > 100 µM | TGI (PC-3 prostate): > 100 µM | TGI (MDA-MB-231 breast): > 100 µM | TGI (T-47D breast): > 100 µM | TGI (A498 renal): > 100 µM | TGI (MDA-MB-435): > 100 µM | TGI (CCRF-CEM leukemia): > 100 µM | TGI (MCF7 breast): > 100 µM | TGI (SK-MEL-2 melanoma): > 100 µM | TGI (NCI-H522 lung): > 100 µM | TGI (SNB-19 CNS): > 100 µM | TGI (MALME-3M melanoma): > 100 µM | TGI (UACC-257 melanoma): > 100 µM | TGI (LOX IMVI melanoma): > 100 µM | TGI (COLO 205 colon): > 100 µM | TGI (MOLT-4 leukemia): > 100 µM | TGI (TK-10 renal): > 100 µM | TGI (HL-60(TB) leukemia): 30.7 µM | TGI (SF-295 CNS): > 100 µM | TGI (SW-620 colon): > 100 µM | TGI (HOP-92 NSCLC): > 100 µM | TGI (HCT-15 colon): > 100 µM | TGI (OVCAR-5 ovarian): > 100 µM | TGI (K-562 leukemia): > 100 µM | TGI (786-0 renal): > 100 µM | TGI (OVCAR-3 ovarian): > 100 µM | TGI (NCI-H226 lung): > 100 µM | TGI (ACHN renal): > 100 µM | TGI (RPMI-8226 leukemia): > 100 µM | TGI (SN12C renal): > 100 µM

CC[C@@]1(O)C(=O)OCc2c1cc1n(c2=O)Cc2c-1nc1ccccc1c2/C=N\NC(=O)C(N)Cc1ccc(O)cc1 (some centres not stated)
TGI (SK-OV-3 ovarian): 9.77 µM | TGI (UO-31 renal): 8.76 µM | TGI (U251 CNS): 5.04 µM | TGI (NCI-H460 lung): 10.8 µM | TGI (UACC-62 melanoma): 1.71 µM | TGI (BT-549 breast): > 31.6 µM | TGI (SF-539 CNS): 0.217 µM | TGI (OVCAR-4 ovarian): > 31.6 µM | TGI (SK-MEL-5 melanoma): 2.7 µM | TGI (SR leukemia): 0.396 µM | TGI (HCT-116 colon): 4.44 µM | TGI (RXF 393 renal): 4.38 µM | TGI (MDA-N): > 31.6 µM | TGI (MDA-MB-231 breast): > 31.6 µM | TGI (T-47D breast): > 25.7 µM | TGI (A498 renal): 3.65 µM | TGI (CCRF-CEM leukemia): 1.15 µM | TGI (NCI-H522 lung): 5.21 µM | TGI (SNB-19 CNS): > 31.6 µM | TGI (MALME-3M melanoma): 7.8 µM | TGI (UACC-257 melanoma): 18.9 µM | TGI (LOX IMVI melanoma): 2.77 µM | TGI (COLO 205 colon): > 31.6 µM | TGI (MOLT-4 leukemia): 1.59 µM | TGI (TK-10 renal): > 31.6 µM | TGI (HL-60(TB) leukemia): 4.69 µM | TGI (SF-295 CNS): 3.16 µM | TGI (HOP-92 NSCLC): 5.64 µM | TGI (HCT-15 colon): > 31.6 µM | TGI (K-562 leukemia): > 100 µM | TGI (786-0 renal): 6.55 µM | TGI (NCI-H226 lung): 2.64 µM | TGI (NCI-H23 lung): 1.82 µM | TGI (ACHN renal): 2.75 µM | TGI (RPMI-8226 leukemia): 5.62 µM | TGI (SN12C renal): 7.75 µM

CC(C)(C)n1[nH]c(=O)n(C(C)(C)C)c1=O
TGI (SF-268 CNS): > 100 µM | TGI (SK-OV-3 ovarian): > 100 µM | TGI (HS 578T breast): > 100 µM | TGI (CAKI-1 renal): > 100 µM | TGI (UO-31 renal): > 100 µM | TGI (U251 CNS): > 100 µM | TGI (A549 NSCLC): > 100 µM | TGI (NCI-H460 lung): > 100 µM | TGI (UACC-62 melanoma): > 100 µM | TGI (M14 melanoma): > 100 µM | TGI (BT-549 breast): > 100 µM | TGI (SNB-75 CNS): > 100 µM | TGI (SF-539 CNS): > 100 µM | TGI (SK-MEL-28 melanoma): > 100 µM | TGI (KM12 colon): > 100 µM | TGI (OVCAR-4 ovarian): > 100 µM | TGI (SK-MEL-5 melanoma): > 100 µM | TGI (SR leukemia): > 100 µM | TGI (HCT-116 colon): > 100 µM | TGI (RXF 393 renal): > 100 µM | TGI (DU-145 prostate): > 100 µM | TGI (MDA-N): > 100 µM | TGI (PC-3 prostate): > 100 µM | TGI (MDA-MB-231 breast): > 100 µM | TGI (T-47D breast): > 100 µM | TGI (A498 renal): > 100 µM | TGI (MDA-MB-435): > 100 µM | TGI (MCF7 breast): > 100 µM | TGI (SK-MEL-2 melanoma): > 100 µM | TGI (SNB-19 CNS): > 100 µM | TGI (UACC-257 melanoma): > 100 µM | TGI (LOX IMVI melanoma): > 100 µM | TGI (COLO 205 colon): > 100 µM | TGI (MOLT-4 leukemia): > 100 µM | TGI (TK-10 renal): > 100 µM | TGI (HL-60(TB) leukemia): > 100 µM | TGI (SF-295 CNS): > 100 µM | TGI (SW-620 colon): > 100 µM | TGI (HOP-92 NSCLC): > 100 µM | TGI (HCT-15 colon): > 100 µM | TGI (OVCAR-5 ovarian): > 100 µM | TGI (K-562 leukemia): > 100 µM | TGI (786-0 renal): > 100 µM | TGI (OVCAR-3 ovarian): > 100 µM | TGI (NCI-H23 lung): > 100 µM | TGI (HCC-2998 colon): > 100 µM | TGI (ACHN renal): > 100 µM | TGI (RPMI-8226 leukemia): > 100 µM | TGI (SN12C renal): > 100 µM

Cc1ccc(S(=O)(=O)NC(Cc2ccccc2)C(=O)CCl)cc1 (configuration not stated)
TGI (IGROV1 ovarian): 28.8 µM | TGI (SF-268 CNS): 31.4 µM | TGI (SK-OV-3 ovarian): 47 µM | TGI (HS 578T breast): 11.3 µM | TGI (UO-31 renal): 27 µM | TGI (U251 CNS): 29.7 µM | TGI (A549 NSCLC): 31.5 µM | TGI (NCI-H460 lung): 29.3 µM | TGI (UACC-62 melanoma): 26.4 µM | TGI (M14 melanoma): 26.2 µM | TGI (BT-549 breast): 23.9 µM | TGI (SNB-75 CNS): 28 µM | TGI (HOP-62 NSCLC): 31 µM | TGI (SF-539 CNS): 30.4 µM | TGI (SK-MEL-28 melanoma): 32.9 µM | TGI (NCI/ADR-RES ovarian): 62.9 µM | TGI (OVCAR-4 ovarian): 18.9 µM | TGI (HT29 colon): 28.5 µM | TGI (EKVX NSCLC): 34.4 µM | TGI (SK-MEL-5 melanoma): 25 µM | TGI (HCT-116 colon): 23.8 µM | TGI (RXF 393 renal): 6.33 µM | TGI (DU-145 prostate): 31.6 µM | TGI (OVCAR-8 ovarian): 29.7 µM | TGI (MDA-N): 27.8 µM | TGI (PC-3 prostate): 29.5 µM | TGI (MDA-MB-231 breast): 27.3 µM | TGI (A498 renal): 31.7 µM | TGI (MDA-MB-435): 30.3 µM | TGI (CCRF-CEM leukemia): > 100 µM | TGI (MCF7 breast): 24.5 µM | TGI (SK-MEL-2 melanoma): 26 µM | TGI (NCI-H522 lung): 21.4 µM | TGI (SNB-19 CNS): 32.1 µM | TGI (MALME-3M melanoma): 27.8 µM | TGI (UACC-257 melanoma): 24.9 µM | TGI (LOX IMVI melanoma): 20.1 µM | TGI (COLO 205 colon): 32.3 µM | TGI (TK-10 renal): 30.9 µM | TGI (HL-60(TB) leukemia): > 100 µM | TGI (SF-295 CNS): 36.6 µM | TGI (SW-620 colon): 24.1 µM | TGI (HOP-92 NSCLC): 26.8 µM | TGI (HCT-15 colon): 31.6 µM | TGI (OVCAR-5 ovarian): 31.2 µM | TGI (K-562 leukemia): > 100 µM | TGI (786-0 renal): 27.8 µM | TGI (OVCAR-3 ovarian): 29.2 µM | TGI (NCI-H226 lung): 33.1 µM | TGI (NCI-H23 lung): 26.8 µM | TGI (HCC-2998 colon): 26.9 µM | TGI (ACHN renal): 30.1 µM | TGI (SN12C renal): 25.3 µM
